Data set [1] deals with T1, GPR10 (Homo sapiens, UniProt P49683).
T1 sequence (P49683 1-370): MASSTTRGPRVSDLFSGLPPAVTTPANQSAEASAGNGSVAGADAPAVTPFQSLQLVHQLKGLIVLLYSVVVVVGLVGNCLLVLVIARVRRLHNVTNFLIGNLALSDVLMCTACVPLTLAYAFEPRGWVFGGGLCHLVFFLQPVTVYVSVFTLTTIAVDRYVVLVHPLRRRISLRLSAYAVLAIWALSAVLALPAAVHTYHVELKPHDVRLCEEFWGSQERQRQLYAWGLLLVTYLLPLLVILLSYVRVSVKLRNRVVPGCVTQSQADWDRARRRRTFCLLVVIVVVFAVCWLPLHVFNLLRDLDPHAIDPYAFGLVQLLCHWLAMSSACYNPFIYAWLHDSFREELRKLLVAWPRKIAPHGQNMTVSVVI
The note with it: read-out: apparent affinity for GPR10; cited from earlier work.

The target in data set [2] is T1, GPR10. Conditions: cells transfected with GPR10; cited from earlier work.
Data set [3] relates to AMPA receptor-mediated thalamic oscillatory activity. Put plainly: AMPA receptor-driven oscillatory activity, extracellular recording from RTN in thalamic slices. Also noted: species or system Sprague-Dawley rats. The protocol:
(§1) Horizontal thalamic slices (400 μm) were prepared from Sprague-Dawley rats (postnatal rats 13-15) using a vibratome (Leica, VTlOOOS). The slices were transferred to a recording chamber after at least 1 hr recovery, and were superfused with artificial cerebrospinal fluid (aCSF) equilibrated with 95% 02/5% CO2 at 0.5 ml/mm. The aCSF contained (in mM): NaCl 126, KCl2.5, NaH2PO4 1.25, CaCl2 2, MgSO4 0.63, NaHCO3 26, and glucose 10. All experiments were carried out in the presence of 10 μM bicuculline maleate and cytochrome c (100 μg/ml) at 34° C. A glass electrode filled with 2 M NaCl was positioned in the nucleus of reticular thalamus (RTN), and extracellular recording was made in response to stimulation of the internal capsule (1-50 μA) every 20-30 sec. After establishing stable oscillatory activity, PrRP was applied for 15-20 min. Paired Student's t-Test was used for statistical analysis. The data were digitized at 1-5 kHz with the Neuronal Activity Acquisition Program (Eclectek Enterprise).
The bar on the left indicates the duration of peptide application. The traces at the bottom show representative responses before and in the presence of PrRP, taken at the time points indicated with arrow heads. […]

Data set [4] concerns NMDA receptor-mediated thalamic oscillatory activity. Put plainly: NMDA receptor-driven oscillatory activity in thalamic slices (low Mg2+ aCSF with CNQX). Also noted: species or system Sprague-Dawley rats. Conditions: 10 μM; low Mg2+ (0.1 mM) aCSF with 10 μM CNQX; n=4. As to the method:
as §1
It was next investigated whether the suppression of RTN oscillatory activity by PrRP is the consequence of AMPA receptor modulation or some general cellular effect. […] The above experiment was thus repeated in a low Mg^2+ (0.1 mM)-aCSF containing 10 μM of the AMPA receptor antagonist CNQX.

Data set [5] has as its system GAERS (Genetic Absence Epilepsy Rats from Strasbourg). Put plainly: absence seizure activity (spike and wave discharges, EEG) in GAERS after ICV injection. It counts as in vivo, rat. The protocol:
Electroencephalogram (EEG) recordings and intracerebroventricular (ICV) injection into GAERS were performed essentially as described in Liu et al., Brain Res. 545:1-7 (1991). Briefly, six male GAERS (300-400 g) were implanted stereotaxically (AP=−0.8, ML=1.2, CV=3 mm, with bregma as reference) with a permanent stainless steel cannula under pentobarbital anesthesia (40 mg/kg i.p.). All rats were also implanted bilaterally with 4 stainless-steel electrodes at the frontal and parietal cortex and connected to a microconnector. Both the guide cannulae and EEG electrodes were anchored to the skull using retaining screws and dental acrylic cement.
After one week of recovery, stainless steel injection cannulae were introduced into the guide cannulae so as to extend 2-4 mm beyond their tips. Injection cannulae were connected to a 10 μl microsyringe driven by a pump. Five microliters saline or peptides at various concentrations were microinjected over 1 min through the cannulae while taking EEG recordings continuously throughout the duration of the experiment, in freely moving animals. During EEG recordings the rats were carefully watched and were prevented from falling asleep by gentle sensory stimulation. Seizure frequency was determined as a cumulative duration of spike and wave discharges per consecutive 20 minute periods (seconds of seizure activity per 20 minute recording) after the initial injection. Statistical analysis was performed using the Wilcoxon test.
PrRP was administered intracerebroventricularly into GAERS rats. EEG was taken throughout the course of the experiment and time spent in seizures (spike and wave discharges (SWD) duration) was tabulated for 20 minute intervals from the initial infusion of either aCSF control or various peptide concentrations. Data from six animals receiving the same treatment were pooled. In comparison to aCSF control, PrRP was able to dose-dependently suppress seizure activity in this animal model (FIGS. 5A-5D). […] This seizure suppressing activity remained significant 60 to 80 minutes after peptide injection.
The chart calibration was 200 microV/1 sec.

The subject of data set [6] is sleeping Sprague-Dawley rats. In words: EEG/EMG sleep/wake recording in sleeping rats after i.c.v. infusion. It counts as in vivo, rat. As to the method:
To determine if PrRP modulates sleep/wake or arousal states, varying doses of PrRP were injected i.c.v. into sleeping rats. EEG and EMG were recorded for 150 min in three groups, each consisting of 6 rats, that received either vehicle, 1 nmol PrRP, or 10 nmol PrRP. Analyses were conducted across five consecutive 30-min epochs; vehicle or PrRP were injected at the end of the second epoch. Vehicle-treated rats spent a substantial portion of the entire testing period asleep with characteristic EEG/EMG recordings. EEG and EMG recordings were made from Male Sprague-Dawley rats (300-400 g, Sasco, Oregon, Wis.) according to the method described previously (Berridge et al., J. Neurosci., 16:6999-7009 (1996)).
Rats were housed in pairs for at least 7-days prior to surgery with ad lib access to food and water on an 11:13 hour light:dark cycle (lights on 7:00 a.m.). Approximately 5 μl of vehicle or PrRP31 dissolved in vehicle ([…]) was infused intracerebroventricularly through a pre-implanted cannula (Berridge et al., supra (1996)). Artificial extracellular fluid (147 mM NaCl, 1.3 mM CaCl2, 0.9 mM MgCl2, 2.5 mM KCl, 5.0 mM NaH2PO4; pH 7.4) plus 200 μg/ml cytochrome c served as vehicle. Infusions were made over a 2-min period using a microprocessor-controlled infusion pump (Harvard Apparatus, South Natick, Mass.). Cortical EEG (ECoG) from the frontal cortex and EMG from the dorsal neck muscles were recorded for 60 min prior to infusion and 90 min following infusion. To be scored as a distinct epoch, the appropriate ECoG and EMG activity patterns needed to persist for a minimum of 15 sec. Time spent in each state was scored and totaled for the five 30 min epochs of the observation period, two during the preinfusion period and three during the post-infusion period. The location of the infusion needle was verified morphologically after each experiment. Data were only used for analysis when EEG recordings were electrically adequate and infusion needle placement was accurate. Statistical analysis was performed using a two-way mixed-design ANOVA with drug treatment as the between-subjects variable and time as the within-subjects variable. Post-hoc analyses were conducted using Tukey's HSD test.
FIGS. 7B and 7C show the effects of varying concentrations of PrRP infused into the lateral ventricle on total time spent awake (FIG. 7B) and slow-wave slept (FIG. 7C). Symbols represent mean±SEM of the time (sec) spent in the two different behavioral state categories of six animals per 30-min epoch. PRE1 and PRE2 represent pre-infusion epochs. POST1-POST3 represent post-infusion epochs. Vehicle-treated rats spent a substantial proportion of the testing period asleep.

A further data set has as its target T2, PrRP receptor (Homo sapiens, UniProt P49683).
T2 construct: expressed in transfected cells
T2 sequence (P49683 1-370): T1 sequence (P49683 1-370)
The note with it: mammalian cells recombinantly expressing PrRP receptor; cited from earlier work.

In data set [7] the test system is rat anterior pituitary cells. The note with it: rat anterior pituitary cells in vitro; cited from earlier work.

As to IRPVGRF [PrRP(25-31)], the Kd on GPR10 [1] is 200 nM. In addition, the calcium mobilization result at GPR10 [2] was “mobilizes calcium”.
As to Prolactin Releasing Peptide [PrRP], the “maximum suppression of number of oscillations” value in data set [3] (10 μM, with DL-APV, bicuculline) is “approximately 40%”. The “inhibition of number of oscillations” value in data set [3] (20 μM, compared with 10 μM) is on record as “comparable degree of inhibition”. Moreover, the “effect on NMDA receptor-driven oscillation” value in data set [4] is “no discernible effect”. The “SWD duration, recovery” value in data set [5] (10 nmol ICV, after 40 minutes) was “returned to baseline”. Moreover, in data set [5] (10 nmol ICV, first 20 minutes), the SWD duration result was “reduced by half”. Also, in data set [5] (50 nmol ICV), the “reduction of seizure activity” value came to 75%. Moreover, the “reduction of seizure activity” value in data set [5] (100 nmol ICV, at 20 minutes) is listed as around 100%. The “other mobility or behavioral changes” value in data set [5] (all peptide concentrations (10-100 nmol ICV)) was “No other mobility or behavioral changes were observed”. Also, the “total time spent awake” value in data set [6] (1 nmol i.c.v., post-infusion epochs) is listed as “only a trend”. For the same substance, in data set [6] (10 nmol i.c.v.), the “conversion to the awake state” value is reported as “nearly complete”, the “duration of awake state” value was “lasted for well over an hour” and the slow-wave sleep entry is given as “near-complete suppression”. In addition, the “total time spent awake” value in data set [6] (10 nmol i.c.v., post-infusion epochs (POST1, POST2)) was “significantly increased”. The “onset of normal waking EEG/EMG patterns” value in data set [6] (injected during sleep phase) is “within minutes”. In addition, the calcium mobilization result at GPR10 [2] is recorded as “leads to calcium mobilization”. For the same substance, the “arachidonic acid metabolite release” value on PrRP receptor is listed as “leads to activation of arachidonic acid metabolite release”.
“SRAHQHSMEIRTPDINPAWYAGRGIRPVGRF [PrRP-31]”: at GPR10 [1], the Kd is around 1 nM. The prolactin-releasing activity result in data set [7] is “having prolactin-releasing activity”.
In the case of TPDINPAWYAGRGIRPVGRF [PrRP-20], on GPR10 [1], the Kd is around 1 nM. Also, the prolactin-releasing activity result in data set [7] is “having prolactin-releasing activity”.
